Laboratory results: patent publication US20230172940A1, “METHODS OF EXTENDING LIFESPAN BY ADMINISTERING FERROPTOSIS INHIBITORS” (COLLABORATIVE MEDICINAL DEVELOPMENT, LLC, priority 2020, published 2023)

Tests used:
[1] = system: dead cells within live C. elegans; experiment: Visualization of cell death with propidium iodide; assay type: in vivo, Caenorhabditis elegans; conditions: for cell death (propidium iodide), preceding organismal death: aged cohorts or young animals treated with DEM, 4-day old and 6 and 8 day old adults; for cell death (animals with any dead cells): at 6 and 8 days of age
Method: The red-fluorescent propidium iodide (PI)^o was used to visualize dead cells within live C. elegans after DEM treatment and during aging. Populations were incubated for 24 h at 25° C. with PI (a 10 μL volume of 0.25 mg/mL solution added to the bacterial lawn on 50 mm NGM plates) prior to the described age or with concurrent exposure to 10 mM DEM (as described above) and PI. For aging experiments^o animals were visualized at Day 6 and Day 8. Cohorts of live animals (i.e. showing spontaneous or touch-provoked movement) were isolated and mounted under glass coverslips on 2% agarose pads without anesthetic. Imaging were captures with on a Leica DMI3000B inverted microscope^o DsRed filter set and a DFC 3000G digital.
Differences between the proportion of live animals with fluorescently labelled nuclei in control versus Lip-1 and SIH treatment, either aged or exposed to DEM, were compared using a z-test.

iron = experiment: X-ray fluorescence microscopy, elemental mapping of iron; assay type: in vivo, Caenorhabditis elegans; design: areal density of iron, Mean Diff. / total body iron, 75% Percentile / total body iron, Maximum / total body iron, Mean / total body iron, Minimum / total body iron, 25% Percentile / total body iron, Median / total body iron, Mean Diff.: unit not given here; conditions: for areal density iron, 25% Percentile / areal density iron, 75% Percentile / areal density iron, Maximum / areal density iron, Mean / areal density iron, Median / areal density iron, Minimum / total body iron, 25% Percentile / total body iron, 75% Percentile / total body iron, Maximum / total body iron, Mean / total body iron, Median / total body iron, Minimum: 250 μM SIH or 200 μM Lip-1; for areal density of iron with aging: Tables 11 and 12; for total body iron, 25% Percentile / total body iron, 75% Percentile / total body iron, Maximum / total body iron, Mean / total body iron, Median / total body iron, Minimum: per worm
Method: Specimens were prepared for XFM using previously described protocols. Briefly, adult C. elegans were removed from NGM, washed four times in excess S-basal (0.1 M NaCl; 0.05 M KHPO4 at pH 6.0), briefly in ice-cold 18 MΩ resistant de-ionized H2O (Millipore) and twice in ice-cold CH3COONH4 (1.5% w/v). Samples were transferred onto 0.5 μm-thick silicon nitride (Si3N4) window (Silson), excess buffer wicked away and then the slide was frozen in liquid nitrogen (N2)-chilled liquid propane using a KF-80 plunge freezer (Leica Microsystems). The samples were lyophilised overnight at −40° C. and stored under low vacuum until required.
The distribution of metals was mapped at the X-ray Fluorescence Microscopy beamline at the Australian Synchrotron using the Maia detector system. The distribution of elements with atomic number<37 were mapped using an incident beam of 15.6 keV X-rays. This incident energy allowed clear separation of X-ray fluorescence (XRF) peaks from the relatively intense elastic and inelastic scatter. The incident beam (^˜1.71×10^9 photons s^−1) was focussed to approximately 2×2 μm^2(H×V, FWHM) in the sample plane and the specimen was continuously scanned through focus (1 mm sec^−1). The resulting XRF was binned in 0.8 jim intervals in both the horizontal and vertical giving virtual pixels spanning 0.64 jim^2 of the specimen probed with a dwell time of […]. XRF intensity was normalized to the incident beam flux monitored with a nitrogen filled ionization chamber with a 27 cm path length placed upstream of the focusing optics. Three single-element thin metal foils of known areal density (Mn 18.9 jig cm^−2, Fe 50.1 jig cm^−2 and Pt 42.2 jig cm^−2, Micromatter, Canada) were used to calibrate the relationship between fluorescence flux at the detector and elemental abundance. Dynamic Analysis, as implemented in GeoPIXE 7.3 (CSIRO), was used to deconvolve the full XRF spectra at each pixel in the scan region to produce quantitative elemental maps. This procedure includes a correction for an assumed specimen composition and thickness, in this case 30 jim of cellulose. Though unlikely to exactly match the actual sample characteristics, deviations from these assumptions are not significant for the results presented in this study as the effects of beam attenuation and self-absorption on calcium and iron XRF are negligible for a dried specimen of this type and size.
Analysis of elemental XRF maps was performed using a combination of tools native to GeoPIXE and ImageJ. Incident photons inelastically scattered (Compton scatter) from the sample detail the extent and internal structure of individual C. elegans. The differential scattering power of the specimens and substrate allowed individual animals (or parts thereof) to be identified as regions of interest (ROI) facilitating analysis of elemental content on a ‘per worm’ basis. This segmentation of each elemental map was achieved using the histogram of pixel intensities from Compton maps to locate the clusters within the image. ROIs composed of <10,000 pixels were deemed to be so small that their elemental content was not reflective of the elemental content of whole animals and so these were excluded from the analysis. The ‘non-worm’ region of each scan was used to calculate the value specimen elemental content was distinguishable from background noise, i.e. the critical value. The background corrected elemental maps were used to establish the areal densities and the total mass of each element associated with individual ROIs.

OP50 E. coli = experiment: Bacterial growth assay (OD600); assay type: cell-based, Escherichia coli; conditions: after 12 hours, 37° C
Method: The effects of test compounds on growth of the OP50 E. coli feed was assayed using optical density at 600 nm (OD600). Using standard microtitre plates, replicate wells of 200 μL of sterile Luria broth were inoculated with 2 μL of an overnight OP50 culture in addition to the stated final concentrations of ampicillin (Amp), Lip-1 and SIH. OD600 measures were taken after 12 hours in an EnSpire (PerkinElmer) spectrophotometric plate reader preset to 37° C., with 30 sec of 200 rpm orbital shaking every 10 minutes.
Data was averaged across duplicate experiments, each with eight replicate wells per treatment where a baseline of Luria broth without an inoculate was subtracted.

[2] = Day 4 Control vs. Day 4 treated (control minus treated)
[3] = Day 4 treated vs. Day 8 treated, same treatment
[4] = Day 8 Control vs. Day 8 treated (control minus treated)

Row | Compound | cell death (propidium iodide), preceding organismal death [1] | cell death (animals with any dead cells) [1] | areal density iron, 25% Percentile (iron; Day 4) | areal density iron, 75% Percentile (iron; Day 4) | areal density iron, Maximum (iron; Day 4) | areal density iron, Mean (iron; Day 4) | areal density iron, Median (iron; Day 4) | areal density iron, Minimum (iron; Day 4) | areal density of iron, Mean Diff. (iron; [2]) | total body iron, Mean Diff. (iron; [2]) | areal density of iron, Mean Diff. (iron; [3]) | total body iron, Mean Diff. (iron; [3]) | areal density iron, 25% Percentile (iron; Day 8) | areal density iron, 75% Percentile (iron; Day 8) | areal density iron, Maximum (iron; Day 8) | areal density iron, Mean (iron; Day 8) | areal density iron, Median (iron; Day 8) | areal density iron, Minimum (iron; Day 8) | areal density of iron, Mean Diff. (iron; [4]) | total body iron, Mean Diff. (iron; [4]) | further results
1 | O=C(N/N=C/c1ccccc1O)c1ccncc1 [SIH, Salicylaldehyde isonicotinoyl hydrazone] | significantly attenuated | completely suppressed | 298.3 pg μm^−2 | 357.3 pg μm^−2 | 412.1 pg μm^−2 | 321.8 pg μm^−2 | 304.4 pg μm^−2 | 267.1 pg μm^−2 | 344.4 | 57.71 | −112.9 | −70.26 | 381.9 pg μm^−2 | 501.9 pg μm^−2 | 558 pg μm^−2 | 434.7 pg μm^−2 | 408.9 pg μm^−2 | 324.2 pg μm^−2 | 385.6 | 15.8 | areal density of iron, Mean Diff. (iron; Day 4 SIH vs. Day 4 Lip-1): −376.6; total body iron, Mean Diff. (iron; Day 4 SIH vs. Day 4 Lip-1): −44.97; total iron load (iron; Day 8): on par with the untreated control group; areal density of iron, Mean Diff. (iron; Day 8 SIH vs. Day 8 Lip-1): −389.9; total body iron, Mean Diff. (iron; Day 8 SIH vs. Day 8 Lip-1): −26.49; areal density of iron with aging (iron): dramatically reduced; total body iron, 25% Percentile (iron; Day 4): 61.28; total body iron, 75% Percentile (iron; Day 4): 71.8; total body iron, Maximum (iron; Day 4): 98.92; total body iron, Mean (iron; Day 4): 68.37; total body iron, Median (iron; Day 4): 66.78; total body iron, Minimum (iron; Day 4): 41.07; total body iron, 25% Percentile (iron; Day 8): 117.5; total body iron, 75% Percentile (iron; Day 8): 169.5; total body iron, Maximum (iron; Day 8): 202; total body iron, Mean (iron; Day 8): 138.6; total body iron, Median (iron; Day 8): 127.5; total body iron, Minimum (iron; Day 8): 74.16; growth of OP50 E. coli (OD600) (OP50 E. coli): neither Lip-1 nor SIH suppressed bacterial growth
2 | Clc1cccc(CNC2=Nc3ccccc3NC23CCNCC3)c1 [Lip-1, N-[(3-chlorophenyl)methyl]-spiro[piperidine-4,2′(1′H)-quinoxalin]-3′-amine] | significantly attenuated | completely suppressed | 630.3 pg μm^−2 | 732.2 pg μm^−2 | 851.8 pg μm^−2 | 698.5 pg μm^−2 | 711.4 pg μm^−2 | 590.5 pg μm^−2 | −32.28 | 12.74 | −123.1 | −51.79 | 726.5 pg μm^−2 | 892.4 pg μm^−2 | 1143 pg μm^−2 | 821.6 pg μm^−2 | 800.5 pg μm^−2 | 644 pg μm^−2 | −1.229 | −10.7 | areal density of iron with aging (iron): did not alter iron density; total body iron, 25% Percentile (iron; Day 4): 91.34; total body iron, 75% Percentile (iron; Day 4): 129.5; total body iron, Maximum (iron; Day 4): 148.6; total body iron, Mean (iron; Day 4): 113.3; total body iron, Median (iron; Day 4): 114.6; total body iron, Minimum (iron; Day 4): 71.51; total body iron, 25% Percentile (iron; Day 8): 128.9; total body iron, 75% Percentile (iron; Day 8): 189.6; total body iron, Maximum (iron; Day 8): 277.9; total body iron, Mean (iron; Day 8): 165.1; total body iron, Median (iron; Day 8): 157.2; total body iron, Minimum (iron; Day 8): 100; growth of OP50 E. coli (OD600) (OP50 E. coli): neither Lip-1 nor SIH suppressed bacterial growth
